Measurements taken from US20240376094A2, “SELECTIVE BCL-XL PROTAC COMPOUNDS AND METHODS OF USE” (Les Laboratoires Servier, priority 2021, published 2024).
pIC50: −log10 of the molar value.

Key:
[1] = system: NCI-H1650; experiment: CellTiter-Glo 3D proliferation assay, NCI-H1650 spheroids; type: cell-based; conditions: Homo sapiens, NCI-H1650, 120 h, 5 days; for Emax: read-out: NCI-H1650 Span (Amax)
Outline: (§1)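 Both lines grown in RPMI-1640 + 10% FBS. COR-L105 plated flat at 1,000 cells/well overnight; NCI-H1650 grown as spheroids, 3,000 cells/well, 72 h. Compounds at 0.508 nM-10 μM final for 5 days, 37° C. ATP read by CellTiter-Glo (3D version for spheroids); IC50 from variable-slope fit normalized to untreated cells.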

[2] = system: COR-L105; experiment: CellTiter-Glo proliferation assay, COR-L105; type: cell-based; conditions: Homo sapiens, COR-L105, 120 h, COR-L105, 5 days; for Emax: read-out: COR-L105 Span (max)
Outline: as §1

pIC50 [1] | Compound | Emax [1] [%] | pIC50 [2] | Emax [2] [%]
8.09 | Cc1ncsc1-c1ccc(CNC(=O)[C@@H]2C[C@@H](O)CN2C(=O)[C@@H](NC(=O)CCCCCCC(=O)N2CCN(CC#Cc3ccc(OCCCc4sc(N5CCCc6c5nnc(Nc5nc7ccccc7s5)c6C)nc4C(=O)O)c(F)c3)CC2)C(C)(C)C)cc1 [Example 33, 2-(3-(benzo[d]thiazol-2-ylamino)-4-methyl-6,7-dihydropyrido [2,3-c]pyridazin-8(5H)-yl)-5-(3-(2-fluoro-4-(3-(4-(8-(((S)-1-((2S,4R)-4-hydroxy-2-((4-(4-methylthiazol-5-yl)benzyl)carbamoyl)pyrrolidin-1-yl)-3,3-dimethyl-1-oxobutan-2-yl)amino)-8-oxooctanoyl)piperazin-1-yl)prop-1-yn-1-yl)phenoxy)propyl) thiazole-4-carboxylic acid] | 89.1 | 7.03 | 76.4
8.11 | Cc1ncsc1-c1ccc([C@H](C)NC(=O)[C@@H]2C[C@@H](O)CN2C(=O)[C@@H](NC(=O)CCCC(=O)N2CCN(CC#Cc3ccc(OCCCc4sc(N5CCCc6c5nnc(Nc5nc7ccccc7s5)c6C)nc4C(=O)O)c(F)c3)CC2)C(C)(C)C)cc1 [Example 35, 2-(3-(benzo[d]thiazol-2-ylamino)-4-methyl-6,7-dihydropyrido [2,3-c]pyridazin-8(5H)-yl)-5-(3-(2-fluoro-4-(3-(4-(5-(((S)-1-((2S,4R)-4-hydroxy-2-(((S)-1-(4-(4-methylthiazol-5-yl)phenyl)ethyl)carbamoyl)pyrrolidin-1-yl)-3,3-dimethyl-1-oxobutan-2-yl)amino)-5-oxopentanoyl)piperazin-1-yl)prop-1-yn-1-yl)phenoxy)propyl)thiazole-4-carboxylic acid] | 88.5 | 7.04 | 87.9
8.47 | Cc1ncsc1-c1ccc([C@H](C)NC(=O)[C@@H]2C[C@@H](O)CN2C(=O)[C@@H](NC(=O)CC23CC4CC(C2)CC(CC(=O)N2CCN(CC#Cc5ccc(OCCCc6sc(N7CCCc8c7nnc(Nc7nc9ccccc9s7)c8C)nc6C(=O)O)c(F)c5)CC2)(C4)C3)C(C)(C)C)cc1 [Example 42, 2-(3-(benzo[d]thiazol-2-ylamino)-4-methyl-6,7-dihydropyrido [2,3-c]pyridazin-8(5H)-yl)-5-(3-(2-fluoro-4-(3-(4-(2-((3S,5R)-3-(2-(((S)-1-((2S,4R)-4-hydroxy-2-(((S)-1-(4-(4-methylthiazol-5-yl)phenyl)ethyl)carbamoyl)pyrrolidin-1-yl)-3,3-dimethyl-1-oxobutan-2-yl)amino)-2-oxoethyl)adamantan-1-yl)acetyl)piperazin-1-yl)prop-1-yn-1-yl)phenoxy)propyl)thiazole-4-carboxylic acid] | 137 | 6.54 | 91.8
8.31 | Cc1ncsc1-c1ccc([C@H](C)NC(=O)[C@@H]2C[C@@H](O)CN2C(=O)[C@@H](NC(=O)CCCCCCCCCCC(=O)N2CCN(CC#Cc3ccc(OCCCc4sc(N5CCCc6c5nnc(Nc5nc7ccccc7s5)c6C)nc4C(=O)O)c(F)c3)CC2)C(C)(C)C)cc1 [Example 46, 2-(3-(benzo[d]thiazol-2-ylamino)-4-methyl-6,7-dihydropyrido [2,3-c]pyridazin-8(5H)-yl)-5-(3-(2-fluoro-4-(3-(4-(12-(((S)-1-((2S,4R)-4-hydroxy-2-(((S)-1-(4-(4-methylthiazol-5-yl)phenyl)ethyl)carbamoyl)pyrrolidin-1-yl)-3,3-dimethyl-1-oxobutan-2-yl)amino)-12-oxododecanoyl)piperazin-1-yl)prop-1-yn-1-yl)phenoxy)propyl)thiazole-4-carboxylic acid] | 83.2 | 6.79 | 101
7.90 | Cc1ncsc1-c1ccc([C@H](C)NC(=O)[C@@H]2C[C@@H](O)CN2C(=O)[C@@H](NC(=O)CCCCCCCCCCC(=O)N2CCN(CCOC34CC5(C)CC(C)(CC(Cn6ncc(-c7ccc(N8CCCc9c8nnc(Nc8nc%10ccccc%10s8)c9C)nc7C(=O)O)c6C)(C5)C3)C4)CC2)C(C)(C)C)cc1 [Example 47, 6-(3-(benzo[d]thiazol-2-ylamino)-4-methyl-6,7-dihydropyrido [2,3-c]pyridazin-8(5H)-yl)-3-(1-(((1r,3s,5R,7S)-3-(2-(4-(12-(((S)-1-((2S,4R)-4-hydroxy-2-(((S)-1-(4-(4-methylthiazol-5-yl)phenyl)ethyl)carbamoyl)pyrrolidin-1-yl)-3,3-dimethyl-1-oxobutan-2-yl)amino)-12-oxododecanoyl)piperazin-1-yl)ethoxy)-5,7-dimethyladamantan-1-yl)methyl)-5-methyl-1H-pyrazol-4-yl)picolinic acid] | 97.1 | 6.64 | 97.6
7.62 | Cc1ncsc1-c1ccc(CNC(=O)[C@@H]2C[C@@H](O)CN2C(=O)[C@@H](NC(=O)CCCCCCCCCCC(=O)N2CCN(CC#Cc3ccc(OCCCc4sc(N5CCCc6c5nnc(Nc5nc7ccccc7s5)c6C)nc4C(=O)O)c(F)c3)CC2)C(C)(C)C)cc1 [Example 48, 2-(3-(benzo[d]thiazol-2-ylamino)-4-methyl-6,7-dihydropyrido [2,3-c]pyridazin-8(5H)-yl)-5-(3-(2-fluoro-4-(3-(4-(12-(((S)-1-((2S,4R)-4-hydroxy-2-((4-(4-methylthiazol-5-yl)benzyl)carbamoyl)pyrrolidin-1-yl)-3,3-dimethyl-1-oxobutan-2-yl)amino)-12-oxododecanoyl)piperazin-1-yl)prop-1-yn-1-yl)phenoxy)propyl)thiazole-4-carboxylic acid] | 88.6 | 6.95 | 94
8.37 | Cc1ncsc1-c1ccc([C@H](C)NC(=O)[C@@H]2C[C@@H](O)CN2C(=O)[C@@H](NC(=O)CCCCCCCCCCCN2CCN(CC#Cc3ccc(OCCCc4sc(N5CCCc6c5nnc(Nc5nc7ccccc7s5)c6C)nc4C(=O)O)c(F)c3)CC2)C(C)(C)C)cc1 [Example 51, 2-(3-(benzo[d]thiazol-2-ylamino)-4-methyl-6,7-dihydropyrido [2,3-c]pyridazin-8(5H)-yl)-5-(3-(2-fluoro-4-(3-(4-(12-(((S)-1-((2S,4R)-4-hydroxy-2-(((S)-1-(4-(4-methylthiazol-5-yl)phenyl)ethyl)carbamoyl)pyrrolidin-1-yl)-3,3-dimethyl-1-oxobutan-2-yl)amino)-12-oxododecyl)piperazin-1-yl)prop-1-yn-1-yl)phenoxy)propyl)thiazole-4-carboxylic acid] | 90.8 | 7.43 | 72.8
